Reference: patent US11724998B2, “PXR agonists and uses thereof for gut barrier dysfunction treatment and prevention” (Albert Einstein College of Medicine, priority 2017, dated 2023)

Key:
[1] = biological target: T1, AhR (Homo sapiens, UniProt P35869); assay: HTS nuclear receptor activation screen using LS180 cells (AhR); type: cell-based; conditions: data not shown
T1 sequence (P35869 11-848): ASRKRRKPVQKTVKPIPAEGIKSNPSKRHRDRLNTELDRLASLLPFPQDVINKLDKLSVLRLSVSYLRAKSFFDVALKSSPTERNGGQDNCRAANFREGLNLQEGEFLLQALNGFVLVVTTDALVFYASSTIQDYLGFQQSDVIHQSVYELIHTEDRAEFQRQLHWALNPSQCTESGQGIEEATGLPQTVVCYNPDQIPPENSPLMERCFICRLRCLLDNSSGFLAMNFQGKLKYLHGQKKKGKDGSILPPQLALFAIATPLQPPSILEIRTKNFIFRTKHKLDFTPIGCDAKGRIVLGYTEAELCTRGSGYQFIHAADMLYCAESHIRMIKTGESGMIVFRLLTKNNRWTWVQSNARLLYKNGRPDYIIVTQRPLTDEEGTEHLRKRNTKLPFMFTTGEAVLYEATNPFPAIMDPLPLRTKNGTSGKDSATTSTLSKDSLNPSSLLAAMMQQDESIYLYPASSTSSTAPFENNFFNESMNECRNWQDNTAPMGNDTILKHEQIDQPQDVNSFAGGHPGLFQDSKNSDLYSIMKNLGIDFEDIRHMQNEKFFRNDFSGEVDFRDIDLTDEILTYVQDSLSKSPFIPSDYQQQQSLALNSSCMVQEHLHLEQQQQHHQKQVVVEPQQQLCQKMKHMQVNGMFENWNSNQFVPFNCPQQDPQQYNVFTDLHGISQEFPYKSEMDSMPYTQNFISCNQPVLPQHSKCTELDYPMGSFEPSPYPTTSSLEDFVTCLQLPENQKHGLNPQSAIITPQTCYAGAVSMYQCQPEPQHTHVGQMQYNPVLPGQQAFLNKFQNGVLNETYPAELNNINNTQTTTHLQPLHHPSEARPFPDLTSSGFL

[2] = biological target: CDK5/p25 enzyme (Homo sapiens, UniProt Q00535); assay: ADP-Glo kinase assay with CDK5/p25 enzyme; type: biochemical; conditions: up to 20 μM
Sequence of CDK5/p25 enzyme (Q00535 whole entry, species assumed): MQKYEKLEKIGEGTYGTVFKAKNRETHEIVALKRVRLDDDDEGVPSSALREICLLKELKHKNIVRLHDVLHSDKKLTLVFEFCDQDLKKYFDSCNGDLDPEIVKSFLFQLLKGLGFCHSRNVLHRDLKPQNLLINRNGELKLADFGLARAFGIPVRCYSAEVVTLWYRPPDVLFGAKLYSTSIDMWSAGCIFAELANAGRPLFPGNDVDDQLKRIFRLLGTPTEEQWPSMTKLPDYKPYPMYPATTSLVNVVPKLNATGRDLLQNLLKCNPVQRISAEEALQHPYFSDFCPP
Sequence of CDK5/p25 enzyme (Q15078 99-307 partner limits assumed, species assumed): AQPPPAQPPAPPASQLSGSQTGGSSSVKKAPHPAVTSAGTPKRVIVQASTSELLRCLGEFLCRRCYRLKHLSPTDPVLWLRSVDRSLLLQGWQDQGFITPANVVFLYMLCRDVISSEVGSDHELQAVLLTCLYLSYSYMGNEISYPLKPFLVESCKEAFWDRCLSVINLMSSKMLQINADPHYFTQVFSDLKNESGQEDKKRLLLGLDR
Description: FIG. 5. ADP-Glo kinase with CDK5/p25 enzyme. Michaelis-Menton fit of RLU values across FKK5 concentrations after enzyme and time of incubation was optimized. The fit is nearly similar with one curve describing all concentration effects. Km˜0.01483; Ki˜4.656e+099; Vmax˜53380.
(§1) IPA/Indoles can have weak (˜2 fold) but important effects on the activation of other nuclear receptors (e.g., CAR, LXR) (33). […] Some receptors, specifically CAR and LXR, can act to induce liver steatosis (79, 83-86) and hepatocarcinogenesis (CAR) (80, 84, 87-89) and thus, avoiding excessive activation of these nuclear receptors in the context of PXR activation would be important. […] CDK5 (along with CDK2) are important kinases that phosphorylate and inhibit PXR activation (90). Accordingly, based on the data, it is unlikely that FKK5 activates PXR via inhibition of CDK5.

[3] = system: LXR, Liver X receptor; assay: Nuclear receptor transactivation assay in Caco-2 cells (LXR); type: cell-based; conditions: FIG. 4
Description: FIG. 4. Nuclear Receptor transactivation assays in caco-2 (day 0) cells. Methods used are published (33). Assays were performed at least two times in triplicate CAR, constitutive androstane receptor; TCBOPOP, CAR ligand; LXR, Liver X receptor; T0901315, LXR ligand. n.s, not significant.
as §1

[4] = biological target: T2, PXR (Homo sapiens, UniProt O75469); assay: Isothermic titration calorimetry (ITC); type: binding; conditions: FIG. 11
T2 sequence (O75469 1-434): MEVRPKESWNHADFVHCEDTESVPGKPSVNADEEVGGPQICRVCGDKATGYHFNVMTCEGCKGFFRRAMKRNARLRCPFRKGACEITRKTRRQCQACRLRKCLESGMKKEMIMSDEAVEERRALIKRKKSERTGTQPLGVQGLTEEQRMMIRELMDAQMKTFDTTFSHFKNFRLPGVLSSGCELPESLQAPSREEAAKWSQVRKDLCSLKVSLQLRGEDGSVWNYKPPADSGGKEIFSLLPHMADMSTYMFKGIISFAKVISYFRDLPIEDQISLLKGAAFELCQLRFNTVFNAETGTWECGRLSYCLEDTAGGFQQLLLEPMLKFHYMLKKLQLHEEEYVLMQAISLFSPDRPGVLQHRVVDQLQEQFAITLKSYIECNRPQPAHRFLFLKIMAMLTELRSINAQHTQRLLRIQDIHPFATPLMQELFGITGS

[5] = biological target: T3, PXR LBD (Homo sapiens, UniProt O75469); assay: One-hybrid PXR LBD reporter gene assay in Caco-2 cells; type: cell-based; conditions: 24 h exposure, FIG. 3
T3 construct: validated using a one-hybrid PXR LBD reporter assay; expressed in transfected cells; host or cells: Caco-2
T3 sequence (O75469 146-433 limits assumed): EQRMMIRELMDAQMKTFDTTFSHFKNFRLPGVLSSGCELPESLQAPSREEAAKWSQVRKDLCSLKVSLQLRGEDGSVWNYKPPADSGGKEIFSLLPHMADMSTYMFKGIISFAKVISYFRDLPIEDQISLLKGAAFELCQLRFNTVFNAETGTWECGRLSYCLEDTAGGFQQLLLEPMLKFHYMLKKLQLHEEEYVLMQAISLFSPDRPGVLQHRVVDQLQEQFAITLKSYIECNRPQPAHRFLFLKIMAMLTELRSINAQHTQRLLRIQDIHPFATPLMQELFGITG
Description: FIG. 3. One-hybrid PXR reporter gene assay. Performed in Caco-2 cells as a 24 h exposure to FKK5 at two different concentrations.

**Q.** O=C(c1ccncc1)c1cc2ccccc2n1S(=O)(=O)c1ccccc1 [FKK5] was tested. Which AhR activation [1] did it give?
**A.** The AhR activation was “not AhR”.

**Q.** What about the “inhibition of CDK5/p25 enzyme” value [2] of the same compound?
**A.** The value was “does not inhibit”.

**Q.** And the LXR activation [3]?
**A.** Its LXR activation is “does not activate”.

**Q.** What about the “binding to human PXR” value [4] of the same compound?
**A.** The value was “efficient and direct binding”.

**Q.** And the “activation of PXR” value [5]?
**A.** The value was roughly 5 fold.
